≈ marks a conversion by molar mass, not a printed value. Entries after “also recorded” stand apart in the source; their conditions may differ. Like-named read-outs stand apart in the source and are kept apart here.

The test system of data set [1] is adriamycin-resistant P388 cells (P388/ADR). Briefly: In vitro inhibition of growth of adriamycin-resistant P388 cells, 72 hours (Test Example 3). The data set is classed as cell-based, mouse. As to conditions: for IC50: Mus musculus, P388/ADR, 72 hours; for growth inhibition of P388/ADR cell (in words): compared with adriamycin, FT-DM, FT-ADM. The procedure:
(§1) Furthermore, in order to estimate the antitumor activities of Compound (a) and Compound (b) of this invention represented by the general formula (I), as well as the adriamycinone derivative represented by the formula (II) (namely, Compound (c) of this invention), some "in vitro" tests for inhibiting proliferation of cancer cells were conducted as shown below.
(§2) The above-mentioned Compound (a), Compound (b) or Compound (c) according to this invention were added at varying concentrations to mouse leukemia, P388 cells or adriamycin-resistant P388 cells (P388/ADR) which had been incubated in test tubes containing an appropriate culture medium. The incubation of the tumor cells were then continued for 72 hours from the addition of the test compound, and determination was made to evaluate such concentrations of the test compound which could inhibit the growth of the leukemia cells by 50% (namely, IC50' ng/ml). FT-DM, FT-ADM and adriamycin (as the hydrochloride) were used as comparative compounds and were tested in the same manner as above.

For data set [2], the system named is Leukemia L-1210 cells. Put plainly: Antitumor activity against leukemia L-1210 in CDF1 mice, 60-day observation (Test Example 1). In kind it is in vivo, mouse. As to conditions: for % Increase in life-span (T/C, %): 9 days, 60 d observation, '>' = at least one of four mice survived 60 days; for development of toxicity (in words): 2.5 to 5 mg/kg/day for daunomycin, adriamycin, 0.3 to 1.25 mg/kg/day for Compound (b), low dosages for formula (I). The procedure: Thus, to evaluate the antitumor effects of the new compounds of this invention against experimental tumors in animals, CDF1 mice (four mice per group) were intraperitoneally transplanted with cells of Leukemia L-1210 at an amount of 1×10^5 cells/mouse. Since an elapsed time of 24 hours from the transplantation of the leukemia cells, a test compound according to this invention was administered intraperitoneally to the mice under test for 9 consecutive days once per day. […] While, mice of the control group (the untreated group) were administered with only physiological saline after the transplantation of the L-1210 cells. During the observation period, the numbers of the surviving mice in the treated group and in the control group were counted, and the mean survival days of mice in the treated group and in the control group were then calculated. From the mean survival day (C) of the untreated mice of the control group and the mean survival day (T) of the treated mice of the treated group, there were evaluated percentages (%) of the increase in the life-span of the treated mice, as T/C %. For a comparison purpose, 7-O-(2,6-dideoxy-2-fluoro-α-L-talopyranosyl)daunomycinone (abbreviation: FT-DM); 7-O-(2,6-dideoxy-2-fluoro-α-L-talopyranosyl)adriamycinone (abbreviation: FT-ADM); daunomycin and adriamycin were also tested in the same manner as above. Incidentally, the mean survival day of mice of the control group (the untreated group) was amounting to 8 to 9 days, and the mean survival day of mice of the comparative groups having received the administration of adriamycin was varying dependently on the dosage of adriamycin.

Data set [3] deals with P388 cells. Briefly: In vitro inhibition of growth of P388 cells, 72 hours (Test Example 3). The data set is classed as cell-based, mouse. As to conditions: for IC50: Mus musculus; for antitumor activity against P388 cell (in words): compared with other compounds. The procedure: as §1, §2
Data set [4] concerns Leukemia L-1210 cells. Briefly: Antitumor activity against leukemia L-1210 in CDF1 mice, 30-day observation (Test Example 2). In kind it is in vivo, mouse. As to conditions: for mice surviving 30 days / mice tested / % Increase in life-span (T/C, %): 9 days; for % Increase in life-span (T/C, %): 30 d observation, '>' = at least one of four mice survived 30 days. The procedure:
Since an elapsed time of 24 hours from the transplantation of the leukemia cells, Compound (c) of this invention was administered intraperitoneally to the mice under test for 9 consecutive days once per day. […] While, mice of the control group (the untreated group) were administered with only physiological saline after the transplantation of the L-1210 cells. During the observation period, the numbers of the surviving mice in the treated group and the control group were counted, and the mean survival days of mice in the treated group and in the control group were then calculated. From the mean survival day (C) of the untreated mice of the control group and the mean survival day (T) of the treated mice of the treated group, there were evaluated percentages (%) of the increase in the life-span of the treated mice as T/C %. For a comparison purpose, adriamycin was also tested in the same manner as above.

For data set [5] the following is noted: human, in vivo; cited from earlier work.
Where [6] appears, read: 0.3 mg/kg/day to 1.25 mg/kg/day, about 300% or more.

By IC50 is commonly meant the concentration needed to halve the response being measured. In the case of `COc1cccc2c1C(=O)c1c(O)c3c(c(O)c1C2=O)C[C@@](O)(C(=O)CO)C[C@@H]3O[C@@H]1O[C@@H](C)[C@@H](O)[C@@H](O)[C@H]1F` [FT-ADM, 7-O-(2,6-dideoxy-2-fluoro-α-L-talopyranosyl)adriamycinone], the IC50 in data set [1] was 0.0928 µg/mL (≈ 0.165 µM); in data set [3] (P388, 72 hours, read-out: IC50) it was 0.0034 µg/mL (≈ 0.00604 µM). The “% Increase in life-span (T/C, %)” value in data set [2] (0.15 mg/kg/day i.p.) was 127%; in data set [2] (0.3 mg/kg/day i.p.), 182%; in data set [2] (0.6 mg/kg/day i.p.), 185%; in data set [2] (1.25 mg/kg/day i.p.), 275%; in data set [2] (2.5 mg/kg/day i.p.), above 352%; in data set [2] (5 mg/kg/day i.p.) it was above 740%.

`COc1cccc2c1C(=O)c1c(O)c3c(c(O)c1C2=O)C[C@@](O)(C(=O)CO)C[C@@H]3O[C@H]1C[C@H](O)[C@H](O)[C@H](C(F)(F)F)O1` [Compound (c), 7-O-(2,6-dideoxy-6,6,6-trifluoro-α-L-lyxo-hexopyranosyl)adriamycinone]: the “concentration inhibiting growth of P388/ADR (IC50) relative to that of adriamycin” value in data set [1] (1/3-folds lower than that of adriamycin) is recorded as 1/3. The IC50 in data set [1] was 0.17 µg/mL (≈ 0.284 µM); in data set [3] (P388, 72 hours, read-out: IC50), below 0.0098 µg/mL. Also, the “growth inhibition of P388/ADR cell (in words)” value in data set [1] is listed as “higher antitumor activities than adriamycin”. The “mice surviving 30 days / mice tested” value in data set [4] (0.15 mg/kg/day i.p.) was 3/4; in data set [4] (0.3 mg/kg/day i.p.), 3/4; in data set [4] (0.6 mg/kg/day i.p.), 2/4. The “% Increase in life-span (T/C, %)” value in data set [4] (0.15 mg/kg/day i.p.) is listed as above 335%; in data set [4] (0.3 mg/kg/day i.p.), above 329%; in data set [4] (0.6 mg/kg/day i.p.) it was above 283%; in data set [4] (1.25 mg/kg/day i.p.), 203%; in data set [4] (2.5 mg/kg/day i.p.), 194%; in data set [4] (5 mg/kg/day i.p.), 135%. Further, in data set [4] (setting [6]), the “percentages of increase in the life-span” value is at least 300%. In addition, in data set [4] (0.3 to 1.25 mg/kg/day), the “complete curing (in words)” value is “some cases of the complete curing of the L-1210 cell-inoculated mice”. Besides, the “development of toxicity (in words)” value in data set [4] (0.3 to 1.25 mg/kg/day, low dosages) is reported as “not accompanied by development of toxicity”. Besides, the “antitumor activity in vivo (in words)” value in data set [4] (0.6 to 0.15 mg/kg) was “very much higher anticancer or antitumor activities than those of adriamycin”. Also, the “mice which could survive for 30 days” value in data set [4] (amongst totally 12 test mice, 0.6 to 0.15 mg/kg) came to 8 mice. For the same compound, in data set [3], the “antitumor activity against P388 cell (in words)” value is recorded as “to a substantially same degree as that of Compound (b)”.

Regarding `COc1cccc2c1C(=O)c1c(O)c3c(c(O)c1C2=O)C[C@@](O)(C(C)=O)C[C@@H]3O[C@@H]1O[C@@H](C)[C@@H](O)[C@@H](O)[C@H]1F` [FT-DM, 7-O-(2,6-dideoxy-2-fluoro-α-L-talopyranosyl)daunomycinone], the IC50 in data set [1] is 0.15 µg/mL (≈ 0.274 µM); in data set [3] (P388, 72 hours, read-out: IC50), 0.033 µg/mL (≈ 0.0604 µM). For the same compound, the “% Increase in life-span (T/C, %)” value in data set [2] (0.15 mg/kg/day i.p.) came to 105%; in data set [2] (0.3 mg/kg/day i.p.) it was 105%; in data set [2] (0.6 mg/kg/day i.p.), 125%; in data set [2] (1.25 mg/kg/day i.p.), 171%; in data set [2] (2.5 mg/kg/day i.p.), 217%; in data set [2] (5 mg/kg/day i.p.) it was 184%.

For `COc1cccc2c1C(=O)c1c(O)c3c(c(O)c1C2=O)C[C@@](O)(C(C)=O)C[C@@H]3O[C@@H]1O[C@@H](C(F)(F)F)[C@@H](O)[C@@H](O)[C@H]1F` [Compound (a), 7-O-(2,6-dideoxy-2,6,6,6-tetrafluoro-α-L-talopyranosyl)daunomycinone], the IC50 is 0.028 µg/mL (≈ 0.0466 µM) in data set [1] and below 0.0098 µg/mL in data set [3] (P388, 72 h). For the same compound, the “growth inhibition of P388/ADR cell (in words)” value in data set [1] is “can inhibit the growth of P388/ADR cell at the remarkedly lower concentrations than adriamycin; also recorded: at the substantially same concentrations as or at the lower concentrations than FT-DM and FT-ADM”. Further, in data set [2], the “antitumor activity in vivo (in words)” value is reported as “much higher therapeutic effects against the L-1210 leukemia than daunomycin; also recorded: at low dosages of 0.6 to 1.25 mg/kg exhibited much higher therapeutic effects than FT-DM”. The “% Increase in life-span (T/C, %)” value in data set [2] (0.15 mg/kg/day i.p.) stood at 106%; in data set [2] (0.3 mg/kg/day i.p.), 119%; in data set [2] (0.6 mg/kg/day i.p.), 132%; in data set [2] (1.25 mg/kg/day i.p.), 294%; in data set [2] (2.5 mg/kg/day i.p.), 210%; in data set [2] (5 mg/kg/day i.p.), 158%.

For the compound `COc1cccc2c1C(=O)c1c(O)c3c(c(O)c1C2=O)C[C@@](O)(C(C)=O)C[C@@H]3O[C@H]1C[C@H](N)[C@H](O)[C@H](C)O1` [Daunomycin, daunomycin], the “% Increase in life-span (T/C, %)” value in data set [2] (0.15 mg/kg/day i.p.) came to 132%; in data set [2] (0.3 mg/kg/day i.p.), 112%; in data set [2] (0.6 mg/kg/day i.p.), 145%; in data set [2] (1.25 mg/kg/day i.p.) it was 158%; in data set [2] (2.5 mg/kg/day i.p.), 171%; in data set [2] (5 mg/kg/day i.p.) it was 138%. In addition, the “development of toxicity (in words)” value in data set [2] is given as “accompanied by development of toxicity”. For the same compound, the “serious side-effects (in words)” value in data set [5] is “serious side-effects such as leukocytopenia, alopecia, myocardiopathy and others”.

As to `COc1cccc2c1C(=O)c1c(O)c3c(c(O)c1C2=O)C[C@@](O)(C(=O)CO)C[C@@H]3O[C@@H]1O[C@@H](C(F)(F)F)[C@@H](O)[C@@H](O)[C@H]1F` [Compound (b), 7-O-(2,6-dideoxy-2,6,6,6-tetrafluoro-α-L-talopyranosyl)adriamycinone], the IC50 is 0.043 µg/mL (≈ 0.0698 µM) in data set [1] and below 0.0098 µg/mL in data set [3] (P388, 72 hours, read-out: IC50). In data set [1], the “growth inhibition of P388/ADR cell (in words)” value was “can inhibit the growth of P388/ADR cell at the remarkedly lower concentrations than adriamycin; also recorded: at the substantially same concentrations as or at the lower concentrations than FT-DM and FT-ADM”. Further, the “antitumor activity in vivo (in words)” value in data set [2] was “remarkedly higher antitumor effects in mice than FT-ADM; also recorded: extraordinarily higher anticancer or antitumor activities than those of adriamycin; also recorded: enhanced anticancer or antitumor activities over the whole range of low dosages of from 0.15 to 1.25 mg/kg of Compound (b), as compared with the comparative drug, FT-ADM”. Further, the “% Increase in life-span (T/C, %)” value in data set [2] (0.15 mg/kg/day i.p.) is recorded as 144%; in data set [2] (0.3 mg/kg/day i.p.), above 407%; in data set [2] (0.6 mg/kg/day i.p.), above 459%; in data set [2] (1.25 mg/kg/day i.p.), above 348%; in data set [2] (2.5 mg/kg/day i.p.) it was 233%; in data set [2] (5 mg/kg/day i.p.), 128%. Also, the “percentages of increase in the life-span” value in data set [2] (setting [6]) was at least 300%. Moreover, in data set [2] (0.3 to 1.25 mg/kg), the “survival for 60 days / cure (in words)” value was “some cases of the complete curing of the L-1210 cell-inoculated mice; also recorded: the mouse which could survive for 60 days (namely, the mouse as fully cured from the leukemia) can be observed”. Also, in data set [2], the “development of toxicity (in words)” value is “not accompanied by development of toxicity”. Also, the “antitumor activity against P388 cell (in words)” value in data set [3] is on record as “to a substantially same degree as that of FT-ADM”.

The record behind these values is patent publication US5719130A, “Anthracycline derivative having a trifluoromethylated sugar” (Zaidan Hojin Biseibutsu Kagaku Kenkyu Kai, priority 1994, dated 1998).
